Experimental findings from ChEMBL document CHEMBL1201862, “PubChem BioAssay data set” (2004) are described below.

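How tested: cells in 96-well plates exposed to compound for 48 hours at five concentrations. The concentration for 50% growth inhibition is given as GI50.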 Active and inactive are the calls of the source. Rule as the data show it: active = GI50 up to about 1.1 µM and inactive = higher.

Test in all cases: NCI tumour cell line growth inhibition, 48 h
For experiment [1], the system named is ACHN.
Experiment [2] has as its system CCRF-CEM.
In experiment [3] the test system is COLO 205.
The test system of experiment [4] is EKVX.
Experiment [5] relates to Hs-578T.
The subject of experiment [6] is IGROV-1.
Experiment [7] relates to LOX IMVI.
For experiment [8], the system named is MOLT-4.
In experiment [9] the test system is NCI-H226.
Experiment [10] deals with OVCAR-5.
Experiment [11] concerns SF-268.
The subject of experiment [12] is SK-MEL-28.
For experiment [13], the system named is SK-OV-3.
For experiment [14], the system named is SN12C.
Experiment [15] has as its system SNB-75.
Experiment [16] relates to T47D.
In experiment [17] the test system is U-251.
In experiment [18] the test system is UACC-257.
For experiment [19], the system named is A498.
Experiment [20] has as its system SR.

`COC(=O)c1ccccc1CC1Cc2cccc(C)c2C1=O` (centres undefined): the GI50 in [1] is 34.8 µM (inactive); in [2] it was 36.8 µM (inactive); in experiment [3], 20.3 µM (inactive); in experiment [4], 11.7 µM (inactive); in experiment [5] it was 38.3 µM (inactive); in experiment [6] it was 46.5 µM (inactive). Moreover, the GI50 in experiment [7] is 22.4 µM (inactive); in experiment [8], 19.9 µM (inactive); in experiment [9] it was 27 µM (inactive); in experiment [10], 57.5 µM (inactive); in experiment [11], 37.8 µM (inactive); in experiment [12], 32.5 µM (inactive). The GI50 in experiment [13] is 38.9 µM (inactive); in [14], 50.5 µM (inactive); in [15], 22.7 µM (inactive); in experiment [16] it was 25.8 µM (inactive); in [17] it was 33 µM (inactive); in experiment [18], 34 µM (inactive).

For the compound `O=C1/C(=C/c2cccc(Oc3ccccc3)c2)N=C(c2ccccc2)N1c1nc2ccc(Sc3ccccc3)cc2[nH]1`, the GI50 in [19] is 26.1 µM (inactive); in [1], 54.3 µM (inactive); in [2], 24.6 µM (inactive); in experiment [3] it was 16.9 µM (inactive); in experiment [4], 44.1 µM (inactive); in [5], 41.3 µM (inactive). The GI50 is 46.9 µM (inactive) in experiment [6]; 30.9 µM (inactive) in [7]; 33.7 µM (inactive) in experiment [8]; 57.8 µM (inactive) in experiment [10]; 37.7 µM (inactive) in experiment [11]; 41.3 µM (inactive) in experiment [12]. Also, the GI50 in [13] was 25.6 µM (inactive); in experiment [14] it was 20.7 µM (inactive); in [15] it was 18.2 µM (inactive); in experiment [16], 23.6 µM (inactive); in experiment [17], 27.4 µM (inactive); in experiment [18], 29.4 µM (inactive).

Turning to `N=S(c1ccccc1[N+](=O)[O-])c1ccccc1[N+](=O)[O-]`, the GI50 in [19] is 28 µM (inactive); in experiment [1], 1.22 µM (inactive); in [2] it was 1.04 µM (active); in [3], 1.3 µM (inactive); in experiment [4], 5.04 µM (inactive); in [5], 4.68 µM (inactive). Besides, the GI50 is 1.98 µM (inactive) in [6]; 0.76 µM (active) in experiment [7]; 1.8 µM (inactive) in experiment [8]; 4.79 µM (inactive) in [9]; 4.13 µM (inactive) in experiment [10]; 4.73 µM (inactive) in experiment [11]. The GI50 in experiment [12] was 4.28 µM (inactive); in [13] it was 8.63 µM (inactive); in [14], 1.11 µM (active); in experiment [15] it was 7.94 µM (inactive); in experiment [16], 0.311 µM (active); in experiment [18] it was 2.33 µM (inactive).

Take `CC(C)(C)CC(C)(C)c1cc(O)c(O)c(CN2CCCCC2)c1`: the GI50 in experiment [19] was 14.3 µM (inactive); in experiment [1], 12.9 µM (inactive); in experiment [3] it was 12.7 µM (inactive); in experiment [4] it was 12.7 µM (inactive); in [5] it was 15.6 µM (inactive); in experiment [6], 17.5 µM (inactive). Further, the GI50 in [7] was 12 µM (inactive); in experiment [8], 4.35 µM (inactive); in experiment [9], 16.7 µM (inactive); in experiment [10], 17.4 µM (inactive); in [11], 12.6 µM (inactive); in [12], 17.7 µM (inactive). Also, the GI50 in [13] is 19.8 µM (inactive); in experiment [14] it was 15.7 µM (inactive); in experiment [15], 17.7 µM (inactive); in [16], 11.6 µM (inactive); in [17] it was 11.9 µM (inactive); in experiment [18], 13.3 µM (inactive).

Take `COC(=O)C(=O)C(C(=O)C(=O)Nc1ccc(C)cc1)c1nc2ccc(C(=O)c3ccccc3)cc2nc1O` (centres undefined): the GI50 is > 100 µM (inactive) in [19]; > 100 µM (inactive) in experiment [1]; 76.4 µM (inactive) in experiment [2]; > 100 µM (inactive) in experiment [4]; 57.3 µM (inactive) in [5]; > 100 µM (inactive) in experiment [6]. The GI50 in experiment [7] is > 100 µM (inactive); in experiment [9], 95.5 µM (inactive); in experiment [10] it was > 100 µM (inactive); in experiment [11] it was 73.6 µM (inactive); in [12], > 100 µM (inactive); in experiment [13], > 100 µM (inactive). The GI50 in experiment [14] was > 100 µM (inactive); in experiment [15] it was 22.3 µM (inactive); in experiment [16] it was 79.4 µM (inactive); in experiment [17], > 100 µM (inactive); in [18], > 100 µM (inactive).

For the compound `CN(C)C(=O)OC(Cn1cncn1)(Cn1cncn1)c1ccc(Cl)cc1Cl`, the GI50 in [19], in experiment [2], in experiment [3], in experiment [4], in [5] and in [6] was > 100 µM (inactive) throughout. Moreover, the GI50 in experiment [7], in experiment [8], in experiment [9], in experiment [10], in [11] and in [12] was > 100 µM (inactive) each time. Also, the GI50 in [13], in experiment [15], in [16], in experiment [17] and in experiment [18] was > 100 µM (inactive) throughout.

As for `O=Nn1c2ccccc2c2ccccc21`, the GI50 in experiment [19] was 23.8 µM (inactive); in experiment [1] it was 56.2 µM (inactive); in experiment [2], 45.7 µM (inactive); in experiment [3], 14.1 µM (inactive); in experiment [4] it was 22.4 µM (inactive); in experiment [5] it was 46.2 µM (inactive). For the same compound, the GI50 is 85.3 µM (inactive) in [6]; 48.1 µM (inactive) in experiment [7]; 55.1 µM (inactive) in experiment [8]; 55.5 µM (inactive) in experiment [9]; > 100 µM (inactive) in experiment [10]; > 100 µM (inactive) in experiment [11]. Besides, the GI50 in experiment [12] is > 100 µM (inactive); in [13] it was 84.5 µM (inactive); in experiment [14] it was > 100 µM (inactive); in [15], 75 µM (inactive); in experiment [16] it was 66.5 µM (inactive); in experiment [17], 92.9 µM (inactive). Also, in experiment [18], the GI50 was 61.2 µM (inactive).

Regarding `O=C(NCCN(CCNC(=O)c1cccc(O)c1O)CCNC(=O)c1cccc(O)c1O)c1cccc(O)c1O` [TRENCAM], the GI50 in experiment [19] is 51.9 µM (inactive); in experiment [1], 4.2 µM (inactive); in experiment [3] it was 5.15 µM (inactive); in experiment [4], 41.4 µM (inactive); in [5], 29.7 µM (inactive); in experiment [6] it was 4.73 µM (inactive). In addition, the GI50 was 1.22 µM (inactive) in experiment [7]; 14.8 µM (inactive) in [9]; 66.2 µM (inactive) in experiment [10]; 2.06 µM (inactive) in experiment [11]; 3.82 µM (inactive) in [12]; 16.7 µM (inactive) in [13]. The GI50 in [14] was 8.55 µM (inactive); in experiment [15], 22.2 µM (inactive); in experiment [16], 9.73 µM (inactive); in experiment [17], 6.49 µM (inactive); in experiment [18] it was 19.5 µM (inactive).

With `CCCCSC1=N/C(=C\c2ccc(N(C)C)cc2)C(=O)N1`, the GI50 was 13.9 µM (inactive) in experiment [19]; 29.8 µM (inactive) in experiment [1]; > 100 µM (inactive) in [2]; 35.5 µM (inactive) in [3]; 19.1 µM (inactive) in experiment [4]; 25.2 µM (inactive) in [5]. In addition, the GI50 in experiment [6] was 35.3 µM (inactive); in experiment [7], 28.6 µM (inactive); in experiment [8] it was 57.5 µM (inactive); in [9], 18 µM (inactive); in [10] it was 24.4 µM (inactive); in [11] it was 32.8 µM (inactive). Also, the GI50 in experiment [12] was 61.9 µM (inactive); in [13], 41.2 µM (inactive); in experiment [14], 16.3 µM (inactive); in experiment [15] it was 35.5 µM (inactive); in experiment [16], 18.7 µM (inactive); in [17] it was 18.4 µM (inactive). Besides, the GI50 in experiment [18] was 20.4 µM (inactive).

Turning to `CCOP(=O)(OCC)C(C)(CC)N/C(=N\C1=NC(C(F)(F)F)(C(F)(F)F)N=C(C(F)(F)F)O1)NC(NC(C)=O)(C(F)(F)F)C(F)(F)F` (centres undefined), the GI50 in experiment [19] is 38.9 µM (inactive); in experiment [1] it was 28.8 µM (inactive); in experiment [2], 15.8 µM (inactive); in experiment [3], 16.1 µM (inactive); in experiment [4], 30.8 µM (inactive); in [5], 31.8 µM (inactive). The GI50 in experiment [6] is 51.2 µM (inactive); in experiment [7], 32.2 µM (inactive); in experiment [8], 13.2 µM (inactive); in [9], 22 µM (inactive); in experiment [10] it was 45 µM (inactive); in [11], 52.2 µM (inactive). Moreover, the GI50 was > 100 µM (inactive) in experiment [12]; 27.4 µM (inactive) in experiment [13]; 34.1 µM (inactive) in [14]; 2.3 µM (inactive) in experiment [15]; 22.7 µM (inactive) in experiment [16]; 31 µM (inactive) in [17]. The GI50 in [18] was 31.8 µM (inactive).

With `COc1ccc(C23OCC(Cc4cc(OC)c(OC)cc42)C3CO)cc1OC` (centres undefined), the GI50 in [19], in experiment [1], in experiment [3], in experiment [4], in experiment [7] and in [8] was > 100 µM (inactive) in each case. In addition, the GI50 in experiment [9] is > 100 µM (inactive); in [10], > 100 µM (inactive); in experiment [12] it was > 100 µM (inactive); in experiment [13], > 100 µM (inactive); in experiment [15] it was > 100 µM (inactive); in experiment [20] it was 29.8 µM (inactive). Also, the GI50 in experiment [16] and in [17] was > 100 µM (inactive) throughout.
